Measurements from PMC3618516, “A Systematic Screen of FDA-Approved Drugs for Inhibitors of Biological Threat Agents” (PLoS ONE, 2013).
Where two headings read alike, the source gives them in different places.

What was measured:
[1] = tested on: MARV GP-pseudotyped vesicular stomatitis virus; test: microbe, parasite or virus in culture; assay type: cell-based, Marburg virus; settings: for EC50: read-out: EC50, MARV Entry; for EC90: read-out: EC90, MARV Entry; for inhibition at 10 µM / inhibition at 50 µM: HEK-293T, read-out: MASV VPEN (% activity)
[2] = tested on: EBOV GP-pseudotyped vesicular stomatitis virus; test: microbe, parasite or virus in culture; assay type: cell-based, Ebola virus; settings: for EC50: read-out: EC50, EBOV Entry; for EC90: read-out: EC90, EBOV Entry; for inhibition at 10 µM / inhibition at 50 µM: HEK-293T, read-out: EBOV VPEN (% activity)
EBOV [3] = test: microbe, parasite or virus in culture; assay type: cell-based, Ebola virus; settings: for EC50: read-out: EC50, EBOV Replication; for EC90: read-out: EC90, EBOV Replication
MARV = test: organism not typed; assay type: cell-based, Marburg virus; settings: for EC50: read-out: EC50, MARV Replication; for EC90: read-out: EC90, MARV Replication
[4] = tested on: LASV GP-pseudotyped vesicular stomatitis virus; test: microbe, parasite or virus in culture; assay type: cell-based, Lassa virus; settings: Vesicular stomatitis virus, HEK-293T, read-out: LASV VPEN (% activity)
LASV = assay type: cell-based, Lassa virus
EBOV [5] = assay type: cell-based, Ebola virus
[6] = humans, cited from earlier work
Francisella tularensis [7] = test: microbe, parasite or virus in culture; assay type: cell-based; settings: J774.A1, 15 h, read-out: Fransciella tularensis ICR (% protection)
Coxiella burnetii = test: microbe, parasite or virus in culture; assay type: cell-based; settings: Vero, 168 h, read-out: Coxiella burnetii ICR (% protection)
Bacillus anthracis [8] = test: microbe, parasite or virus in culture; assay type: cell-based; settings: J774.A1, 15 h, read-out: Bacillus anthracis ICR (% protection)
Bacillus anthracis [9] = assay type: cell-based; settings: 50 µM
Francisella tularensis [10] = assay type: cell-based; settings: 50 µM
[11] = tested on: EBOV virus-like particles; assay type: cell-based, Ebola virus
[12] = Vesicular stomatitis virus, 10 µM

CCN(CC)CCCNc1ccnc2cc(Cl)ccc12 [AQ-13, Aminoquinoline-13]
EC50 [1]: 4.3 µM
EC90 [1]: 16 µM
EC50 [2]: 4.3 µM
EC90 [2]: 20 µM
EC50 (EBOV [3]): 21 µM
EC90 (EBOV [3]): 39 µM
EC50 (MARV): 42 µM
EC90 (MARV): 48 µM

CCOC(=O)C1=C(COCCN)NC(C)=C(C(=O)OC)C1c1ccccc1Cl (centres unmarked) [Amlodipine]
inhibition at 10 µM ([4]; 10 µM): 61%
inhibition at 10 µM [1, 12]: 93%
inhibition at 10 µM ([2]; Zaire ebolavirus, 10 µM): 93%

OC(CCN1CCCCC1)(c1ccccc1)C1CC2C=CC1C2 (centres unmarked) [Biperiden]
inhibition at 50 µM [4]: 27%
LASV VR (LASV; 50 µM): −
inhibition at 50 µM ([1]; Vesicular stomatitis virus): 89%
inhibition at 50 µM ([2]; Zaire ebolavirus): 98%
EBOV VR (EBOV [5]; 50 µM): −

CC(C(=O)O)c1ccc2c(c1)[nH]c1ccc(Cl)cc12 (centres unmarked) [Carprofen]
inhibition at 10 µM ([4]; 10 µM): 50%
LASV VR (LASV; 10 µM): −
inhibition at 10 µM [1, 12]: 88%
inhibition at 10 µM ([2]; Zaire ebolavirus, 10 µM): 94%
EBOV VR (EBOV [5]; 10 µM): −

CC[C@H]1OC(=O)[C@H](C)[C@@H](O[C@H]2C[C@@](C)(OC)[C@@H](O)[C@H](C)O2)[C@H](C)[C@@H](O[C@@H]2O[C@H](C)C[C@H](N(C)C)[C@H]2O)[C@](C)(OC)C[C@@H](C)C(=O)[C@H](C)[C@@H](O)[C@]1(C)O [Clarithromycin]
bioavailable ([6]; no reference given): ~50%

CCC[C@@H]1C[C@@H](C(=O)N[C@@H]([C@H]2O[C@H](SC)[C@H](O)[C@@H](O)[C@H]2O)[C@H](C)Cl)N(C)C1 [Clindamycin]
inhibition at 50 µM (Francisella tularensis [7]): 83%
inhibition of growth at 50 µM (Coxiella burnetii): 0%

CN(C)CC[C@@H](c1ccc(Br)cc1)c1ccccn1 [Dexbrompheniramine]
inhibition at 50 µM [4]: 74%
inhibition at 50 µM ([1]; Vesicular stomatitis virus): 80%
inhibition at 50 µM ([2]; Zaire ebolavirus): 85%

CCCCOc1cc(C(=O)NCCN(CC)CC)c2ccccc2n1 [Dibucaine]
inhibition at 10 µM ([4]; 10 µM): 49%
inhibition at 10 µM [1, 12]: 93%
inhibition at 10 µM ([2]; Zaire ebolavirus, 10 µM): 99%
EBOV VR (EBOV [5]; 10 µM): −

CCOC(=O)C1(c2ccccc2)CCN(CCC(C#N)(c2ccccc2)c2ccccc2)CC1 [Diphenoxylate]
inhibition at 50 µM [4]: 83%
inhibition at 50 µM ([1]; Vesicular stomatitis virus): 95%
inhibition at 50 µM ([2]; Zaire ebolavirus): 96%
EBOV VR (EBOV [5]; 50 µM): +

CN1CCC(OC(c2ccccc2)c2ccccc2)CC1 [Diphenylpyraline]
inhibition at 50 µM [4]: 22%
LASV VR (LASV; 50 µM): −
inhibition at 50 µM ([1]; Vesicular stomatitis virus): 85%
inhibition at 50 µM ([2]; Zaire ebolavirus): 96%
EBOV VR (EBOV [5]; 50 µM): +

CNCC(O)c1ccc(OC(=O)C(C)(C)C)c(OC(=O)C(C)(C)C)c1 (centres unmarked) [Dipivefrin]
inhibition at 50 µM [4]: 90%
LASV VR (LASV; 50 µM): −
inhibition at 50 µM ([1]; Vesicular stomatitis virus): 90%
inhibition at 50 µM ([2]; Zaire ebolavirus): 94%
EBOV VR (EBOV [5]; 50 µM): −

CC[C@H]1OC(=O)[C@H](C)[C@@H](O[C@H]2C[C@@](C)(OC)[C@@H](O)[C@H](C)O2)[C@H](C)[C@@H](O[C@@H]2O[C@H](C)C[C@H](N(C)C)[C@H]2O)[C@](C)(O)C[C@@H](C)C(=O)[C@H](C)[C@@H](O)[C@]1(C)O [Erythromycin]
inhibition at 50 µM (Bacillus anthracis [8]): 96%
Bacillus anthracis Broth (% protection) (Bacillus anthracis [9]): +
inhibition at 50 µM (Francisella tularensis [7]): 104%
Fransciella tularensis Broth (% protection) (Francisella tularensis [10]): +
inhibition of growth at 50 µM (Coxiella burnetii): 100%
inhibition at 10 µM ([4]; 10 µM): 60%
LASV VR (LASV; 10 µM): −
inhibition at 10 µM [1, 12]: 98%
inhibition at 10 µM ([2]; Zaire ebolavirus, 10 µM): 96%
EBOV VR (EBOV [5]; 10 µM): −

C[C@]12CC[C@@H]3c4ccc(O)cc4CC[C@H]3[C@@H]1CC[C@@H]2O [Estradiol]
inhibition at 10 µM ([4]; 10 µM): 50%
LASV VR (LASV; 10 µM): −
inhibition at 10 µM [1, 12]: 98%
inhibition at 10 µM ([2]; Zaire ebolavirus, 10 µM): 93%
EBOV VR (EBOV [5]; 10 µM): −

CNCCC(Oc1ccc(C(F)(F)F)cc1)c1ccccc1 (centres unmarked) [Fluoxetine]
inhibition at 10 µM ([4]; 10 µM): 76%
LASV VR (LASV; 10 µM): −
inhibition at 10 µM [1, 12]: 98%
inhibition at 10 µM ([2]; Zaire ebolavirus, 10 µM): 96%
EBOV VR (EBOV [5]; 10 µM): −

CO/N=C1\CN(c2nc3c(cc2F)c(=O)c(C(=O)O)cn3C2CC2)CC1CN (centres unmarked) [Gemifloxacin]
inhibition at 50 µM (Bacillus anthracis [8]): 97%
Bacillus anthracis Broth (% protection) (Bacillus anthracis [9]): −
inhibition at 50 µM (Francisella tularensis [7]): 91%
Fransciella tularensis Broth (% protection) (Francisella tularensis [10]): −
inhibition of growth at 50 µM (Coxiella burnetii): 0%

CCN(CCO)CCCC(C)Nc1ccnc2cc(Cl)ccc12 (centres unmarked) [HCQ, Hydroxychloroquine]
EC50 ([1]; Vesicular stomatitis virus): 9.8 µM
EC90 ([1]; Vesicular stomatitis virus): 52 µM
EC50 ([2]; Zaire ebolavirus): 9.5 µM
EC90 ([2]; Zaire ebolavirus): 85 µM
EC50 (EBOV [3]; Zaire ebolavirus): 22 µM
EC90 (EBOV [3]; Zaire ebolavirus): 32 µM
EC50 (MARV): 18 µM
EC90 (MARV): 19 µM
effect on number of VLPs bound per cell [11]: no significant difference in binding

CN1CCC(=C2c3ccccc3CC(=O)c3sccc32)CC1 [Ketotifen]
inhibition at 50 µM [4]: 33%
LASV VR (LASV; 50 µM): −
inhibition at 50 µM ([1]; Vesicular stomatitis virus): 97%
inhibition at 50 µM ([2]; Zaire ebolavirus): 99%
EBOV VR (EBOV [5]; 50 µM): +

CCC(=O)O[C@@](Cc1ccccc1)(c1ccccc1)[C@@H](C)CN(C)C [Levopropoxyphene]
inhibition at 50 µM [4]: 79%
inhibition at 50 µM ([1]; Vesicular stomatitis virus): 89%
inhibition at 50 µM ([2]; Zaire ebolavirus): 98%

CN(C)c1ccc(O)c2c1C[C@H]1C[C@H]3[C@H](N(C)C)C(O)=C(C(N)=O)C(=O)[C@@]3(O)C(O)=C1C2=O [Minocycline]
inhibition at 50 µM (Bacillus anthracis [8]): 95%
Bacillus anthracis Broth (% protection) (Bacillus anthracis [9]): −
inhibition at 50 µM (Francisella tularensis [7]): 92%
Fransciella tularensis Broth (% protection) (Francisella tularensis [10]): −
inhibition of growth at 50 µM (Coxiella burnetii): 0%

COc1c(C)c2c(c(O)c1C/C=C(\C)CCC(=O)OCCN1CCOCC1)C(=O)OC2 [Mycophenolate mofetil]
inhibition at 50 µM [4]: 69%
LASV VR (LASV; 50 µM): −
inhibition at 50 µM ([1]; Vesicular stomatitis virus): 81%
inhibition at 50 µM ([2]; Zaire ebolavirus): 91%
EBOV VR (EBOV [5]; 50 µM): −

CCN[C@@H]1C[C@H](N)[C@@H](O[C@H]2OC(CN)=CC[C@H]2N)[C@H](O)[C@H]1O[C@H]1OC[C@](C)(O)[C@H](NC)[C@H]1O [Netilmicin]
inhibition at 50 µM (Bacillus anthracis [8]): 98%
Bacillus anthracis Broth (% protection) (Bacillus anthracis [9]): +
inhibition at 50 µM (Francisella tularensis [7]): -2%
Fransciella tularensis Broth (% protection) (Francisella tularensis [10]): +
inhibition of growth at 50 µM (Coxiella burnetii): 100%

CCn1cc(C(=O)O)c(=O)c2cc(F)c(N3CCNCC3)cc21 [Norfloxacin]
inhibition at 50 µM (Bacillus anthracis [8]): 105%
Bacillus anthracis Broth (% protection) (Bacillus anthracis [9]): +
inhibition at 50 µM (Francisella tularensis [7]): 83%
Fransciella tularensis Broth (% protection) (Francisella tularensis [10]): +
inhibition of growth at 50 µM (Coxiella burnetii): 0%
Cmax ([6]; dose not given): 2000 ng/mL

CN1CCCN=C1COC(=O)C(O)(c1ccccc1)C1CCCCC1 (centres unmarked) [Oxyphencyclimine]
inhibition at 50 µM [4]: 28%
LASV VR (LASV; 50 µM): −
inhibition at 50 µM ([1]; Vesicular stomatitis virus): 89%
inhibition at 50 µM ([2]; Zaire ebolavirus): 95%
EBOV VR (EBOV [5]; 50 µM): −

CN(C)[C@@H]1C(O)=C(C(N)=O)C(=O)[C@@]2(O)C(O)=C3C(=O)c4c(O)cccc4[C@@](C)(O)[C@H]3[C@H](O)[C@@H]12 [Oxytetracycline]
inhibition at 50 µM (Bacillus anthracis [8]): 94%
Bacillus anthracis Broth (% protection) (Bacillus anthracis [9]): +
inhibition at 50 µM (Francisella tularensis [7]): 92%
Fransciella tularensis Broth (% protection) (Francisella tularensis [10]): +
inhibition of growth at 50 µM (Coxiella burnetii): 0%

Fc1ccc([C@@H]2CCNC[C@H]2COc2ccc3c(c2)OCO3)cc1 [Paroxetine]
inhibition at 10 µM ([4]; 10 µM): 6%
LASV VR (LASV; 10 µM): −
inhibition at 10 µM [1, 12]: 89%
inhibition at 10 µM ([2]; Zaire ebolavirus, 10 µM): 98%
EBOV VR (EBOV [5]; 10 µM): −

CC(C)(C)NC[C@H](O)COc1ccccc1C1CCCC1 [Penbutolol]
inhibition at 10 µM ([4]; 10 µM): 67%
inhibition at 10 µM [1, 12]: 81%
inhibition at 10 µM ([2]; Zaire ebolavirus, 10 µM): 98%

CN1CCN(CCCN2c3ccccc3Sc3ccc(Cl)cc32)CC1 [Prochlorperazine]
inhibition at 10 µM ([4]; 10 µM): 70%
inhibition at 10 µM [1, 12]: 93%
inhibition at 10 µM ([2]; Zaire ebolavirus, 10 µM): 95%

CNCCCC1c2ccccc2C=Cc2ccccc21 [Protriptyline]
inhibition at 10 µM [4]: 28%
inhibition at 10 µM ([1]; Vesicular stomatitis virus): 80%
inhibition at 10 µM ([2]; Zaire ebolavirus): 83%

CN(C)[C@@H]1C(O)=C(C(N)=O)C(=O)[C@@]2(O)C(O)=C3C(=O)c4c(O)cccc4[C@@](C)(O)[C@H]3C[C@@H]12 [Tetracycline]
inhibition at 50 µM (Bacillus anthracis [8]): 105%
inhibition at 50 µM (Francisella tularensis [7]): 103%
inhibition of growth at 50 µM (Coxiella burnetii): 0%

CN(C)CCOc1ccc(/C(=C(/CCCl)c2ccccc2)c2ccccc2)cc1 [Toremifene]
inhibition at 10 µM ([4]; 10 µM): 76%
inhibition at 10 µM [1, 12]: 96%
inhibition at 10 µM ([2]; Zaire ebolavirus, 10 µM): 97%

OC(CCN1CCCCC1)(c1ccccc1)C1CCCCC1 (centres unmarked) [Trihexyphenidyl]
inhibition at 10 µM [4]: 52%
LASV VR (LASV): −
inhibition at 10 µM ([1]; Vesicular stomatitis virus): 91%
inhibition at 10 µM ([2]; Zaire ebolavirus): 97%
EBOV VR (EBOV [5]): −
